Measurements: US20240090503A1, “FUNGICIDAL OXADIAZOLES AND THEIR MIXTURES” (FMC CORPORATION, priority 2020, published 2024)
Marks after values point to notes of the source that are not given here.

What was measured:
Format in all cases: in vivo
[1] = tested on: Puccinia recondita f. sp. tritici (the causal agent of wheat leaf rust); test: Test C: preventive spray on wheat seedlings, wheat leaf rust, visual disease rating; settings: wheat seedlings
Outline: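 Wheat seedlings sprayed to run-off with compound in acetone/water (50/50) with 250 ppm PEG400, then inoculated with spores the following day. After 24 h saturated humidity at 20° C. and 6 days in growth chamber at 20° C., disease rated visually as % control relative to untreated controls.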

[2] = tested on: Zymoseptoria tritici (the causal agent of wheat leaf blotch); test: Test B: preventive spray on wheat seedlings, wheat leaf blotch, visual disease rating; settings: wheat seedlings
Outline: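 This is a preventive test: spray application preceded Zymoseptoria tritici spore inoculation by one day. Test suspensions were in acetone/water with 250 ppm PEG400 surfactant, at the listed ppm rate. After 48 h saturated humidity at 24° C and 17 days at 20° C, visual ratings scored control from 0 to 100%.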

[3] = tested on: Phakopsora pachyrhizi (the causal agent of Asian soybean rust); test: Test A: preventive spray on soybean seedlings, Asian soybean rust, visual disease rating; settings: soybean seedlings
Outline: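 Compound in acetone/water (50/50) with 250 ppm PEG400 sprayed to run-off on soybean seedlings; inoculated next day with Phakopsora pachyrhizi spores. Held 24 h at 22° C in saturated atmosphere, then 8 days in a 22° C growth chamber before visual rating as % disease control relative to controls.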

[4] = test suspension 10 ppm, 100 = 100% disease control, 0 = no control
[5] = 10 ppm test suspension, 100 = 100% disease control, 0 = no control
[6] = 250 ppm test suspension, 100 = 100% disease control
[7] = Zymoseptoria tritici, 456 h, 250 ppm test suspension, 100 = 100% disease control
[8] = 50 ppm test suspension, 100 = 100% disease control, 0 = no control

O=S1(=O)CCCN1Cc1ccc(-c2noc(C(F)(F)F)n2)cc1 [compound 322]
Test C disease control rating ([1]; test suspension 250 ppm): 100%
Test B disease control rating ([2]; test suspension 250 ppm): 95* %
Test A disease control rating ([3]; test suspension 250 ppm): 100%

C#CCNC(=O)C1=NOC(Cc2ccc(-c3noc(C(F)(F)F)n3)cc2)C1 (stereo not drawn) [compound 176]
Test C disease control rating ([1]; test suspension 250 ppm): 100%
Test B disease control rating ([2]; test suspension 250 ppm): 92%
Test A disease control rating ([3]; test suspension 250 ppm): 100%

N#CC(Nc1ccccc1)c1ccc(-c2noc(C(F)(F)F)n2)cc1 (stereo not drawn) [Compound 13, α-(phenylamino)-4-[5-(trifluoromethyl)-1,2,4-oxadiazol-3-yl]benzeneacetonitrile]
pest or weed control at 250 µg/mL ([1]; Puccinia recondita, 168 h, test suspension 250 ppm): 100%
pest or weed control at 250 µg/mL ([2]; Zymoseptoria tritici, 456 h, test suspension 250 ppm): 85%
pest or weed control at 250 µg/mL ([3]; Phakopsora pachyrhizi, 216 h, test suspension 250 ppm): 100%

CCOC(=O)c1cnn(CCCn2nc(-c3noc(C(F)(F)F)n3)ccc2=O)c1 [compound 358]
Test C disease control rating ([1]; test suspension 10 ppm): 0%
Test B disease control rating ([2]; test suspension 250 ppm): 0* %
Test A disease control rating [3, 4]: 0%

O=C(NCC(F)(F)F)c1csc(Cc2ccc(-c3noc(C(F)(F)F)n3)cc2)c1 [compound 286]
Test C disease control rating ([1]; test suspension 10 ppm): 100%
Test B disease control rating ([2]; test suspension 250 ppm): 3* %
Test A disease control rating [3, 4]: 100%

N#CCNC(=O)c1csc(Cc2ccc(-c3noc(C(F)(F)F)n3)cc2)n1 [compound 393]
Test C disease control rating [1, 5]: 100%
Test B disease control rating [2, 6]: 94* %
Test A disease control rating [3, 5]: 100%

COC(=O)c1coc(COc2ccc(-c3noc(C(F)(F)F)n3)cc2)n1 [Compound 403, methyl 2-[[4-[5-(trifluoromethyl)-1,2,4-oxadiazol-3-yl]¬phenoxy]¬methyl]oxazole-4-carboxylate]
Test C disease control rating [1, 5]: 0%
Test B disease control rating [2, 6]: 47* %
Test A disease control rating [3, 5]: 60%

CCNC(=O)c1csc(Cc2ccc(-c3noc(C(F)(F)F)n3)cc2)n1 [compound 488]
Test C disease control rating [1, 5]: 100%
Test B disease control rating [2, 6]: 99* %
Test A disease control rating [3, 5]: 100%

N#CCNC(=O)c1csc(Cc2ccc(-c3noc(C(F)(F)F)n3)cc2)c1 [compound 288]
Test C disease control rating ([1]; test suspension 10 ppm): 100%
Test B disease control rating ([2]; test suspension 250 ppm): 91* %
Test A disease control rating [3, 4]: 100%

N#CCNC(=O)c1csc(COc2ccc(-c3noc(C(F)(F)F)n3)cc2)n1 [compound 473]
Test C disease control rating [1, 5]: 89%
Test B disease control rating [2, 6]: 28* %
Test A disease control rating [3, 5]: 94%

CCOC(=O)c1cccc(Cc2ccc(-c3noc(C(F)(F)F)n3)cc2)c1 [Compound 454]
Test C disease control rating [1, 5]: 0%
Test B disease control rating [2, 6]: 47* %
Test A disease control rating [3, 5]: 100%

C=CCOC(=O)c1coc(Cc2ccc(-c3noc(C(F)(F)F)n3)cc2)n1 [compound 334]
Test C disease control rating ([1]; test suspension 10 ppm): 86%
Test B disease control rating ([2]; test suspension 250 ppm): 92* %
Test A disease control rating [3, 4]: 99%

CN(C)C(=O)C1=NOC(COc2cccc(-c3noc(C(F)(F)F)n3)c2)C1 (stereo not drawn) [compound 502]
pest or weed control at 250 ppm ([1]; Puccinia recondita, 168 h, 250 ppm test suspension, 100 = 100% disease control, 0 = no control): 100%
pest or weed control at 250 ppm [2, 7]: 62%
pest or weed control at 250 ppm ([3]; Phakopsora pachyrhizi, 216 h, 250 ppm test suspension, 100 = 100% disease control, 0 = no control): 100%

N#CCNC(=O)c1ccc(Cc2ccc(-c3noc(C(F)(F)F)n3)cc2)cc1 [compound 283]
Test C disease control rating ([1]; test suspension 10 ppm): 98%
Test B disease control rating ([2]; test suspension 250 ppm): 0* %
Test A disease control rating [3, 4]: 100%

CCCOC(=O)c1cnn(CCCc2ccc(-c3noc(C(F)(F)F)n3)cc2)c1 [compound 365]
Test C disease control rating ([1]; test suspension 50 ppm): 99%
Test B disease control rating ([2]; test suspension 250 ppm): 80* %
Test A disease control rating ([3]; test suspension 50 ppm): 100%

COC(=O)c1nn(Cc2ccc(-c3noc(C(F)(F)F)n3)cc2)c2ccccc12 [compound 134]
Test C disease control rating ([1]; test suspension 255 ppm): 80%
Test B disease control rating ([2]; test suspension 255 ppm): 0%
Test A disease control rating ([3]; test suspension 255 ppm): 100%

CCOC(=O)c1csc(Cc2ccc(-c3noc(C(F)(F)F)n3)s2)n1 [compound 201]
Test C disease control rating ([1]; test suspension 250 ppm): 100%
Test B disease control rating ([2]; test suspension 250 ppm): 28%
Test A disease control rating ([3]; test suspension 250 ppm): 100%

O=c1cnc2ccccc2n1Cc1ccc(-c2noc(C(F)(F)F)n2)cc1 [Compound 158, 1-[[4-[5-(trifluoromethyl)-1,2,4-oxadiazol-3-yl]phenyl]methyl]-2(1H)-quinoxalinone]
pest or weed control at 270 µg/mL ([1]; Puccinia recondita, 168 h, test suspension 270 ppm): 100%
pest or weed control at 270 µg/mL ([2]; Zymoseptoria tritici, 456 h, test suspension 270 ppm): 90%
pest or weed control at 270 µg/mL ([3]; Phakopsora pachyrhizi, 216 h, test suspension 270 ppm): 100%

CCOC(=O)c1cnn(CN2CCC(c3noc(C(F)(F)F)n3)CC2)c1 [compound 458]
Test C disease control rating [1, 8]: 0%
Test B disease control rating [2, 6]: 0* %
Test A disease control rating [3, 8]: 0%

FC(F)(F)c1nc(-c2ccc(OCc3nc4ccccc4o3)cc2)no1 [compound 355]
Test C disease control rating ([1]; test suspension 10 ppm): 0%
Test B disease control rating ([2]; test suspension 250 ppm): 4* %
Test A disease control rating [3, 4]: 0%

CCCOC(=O)c1cnn(Cc2ccc(-c3noc(C(F)(F)F)n3)o2)c1 [compound 211]
Test C disease control rating ([1]; test suspension 50 ppm): 100%
Test B disease control rating ([2]; test suspension 250 ppm): 70* %
Test A disease control rating ([3]; test suspension 50 ppm): 100%

O=C(NCCOC(F)(F)F)c1coc(Cc2ccc(-c3noc(C(F)(F)F)n3)cc2)n1 [Compound 401, N-[2-(trifluoromethoxy)ethyl]-2-[[4-[5-(trifluoromethyl)-1,2,4-oxadiazol-3-yl]phenyl]methyl]-4-oxazolecarboxamide]
pest or weed control at 10 ppm ([1]; Puccinia recondita, 168 h, 10 ppm test suspension, 100 = 100% disease control, 0 = no control): 99%
pest or weed control at 250 ppm [2, 7]: 77%
pest or weed control at 10 ppm ([3]; Phakopsora pachyrhizi, 216 h, 10 ppm test suspension, 100 = 100% disease control, 0 = no control): 100%

O=C(c1coc(Cc2ccc(-c3noc(C(F)(F)F)n3)cc2)n1)N1CCC1 [compound 261]
Test C disease control rating ([1]; test suspension 10 ppm): 99%
Test B disease control rating ([2]; test suspension 250 ppm): 88* %
Test A disease control rating [3, 4]: 100%

O=[N+]([O-])c1ccc2c(cnn2Cc2ccc(-c3noc(C(F)(F)F)n3)cc2)c1 [compound 94]
Test C disease control rating ([1]; test suspension 250 ppm): 78%
Test B disease control rating ([2]; test suspension 250 ppm): 35%
Test A disease control rating ([3]; test suspension 250 ppm): 100%

CCNC(=O)c1coc(Cc2ccc(-c3noc(C(F)(F)F)n3)cc2)n1 [compound 280]
Test C disease control rating ([1]; test suspension 10 ppm): 99%
Test B disease control rating ([2]; test suspension 250 ppm): 99* %
Test A disease control rating [3, 4]: 100%

O=C(NCC(F)(F)F)c1ccc(Cc2ccc(-c3noc(C(F)(F)F)n3)cc2)cc1 [compound 281]
Test C disease control rating ([1]; test suspension 10 ppm): 95%
Test B disease control rating ([2]; test suspension 250 ppm): 34* %
Test A disease control rating [3, 4]: 100%

N#Cc1cn(Cc2ccc(-c3noc(C(F)(F)F)n3)cc2)c2ccccc12 [compound 129]
Test C disease control rating ([1]; test suspension 260 ppm): 89%
Test B disease control rating ([2]; test suspension 260 ppm): 0%
Test A disease control rating ([3]; test suspension 260 ppm): 100%

CCOC(=O)c1cn(Cc2ccc(-c3noc(C(F)(F)F)n3)cc2)nc1C(F)(F)F [compound 111]
Test C disease control rating ([1]; test suspension 255 ppm): 86%
Test B disease control rating ([2]; test suspension 255 ppm): 0%
Test A disease control rating ([3]; test suspension 255 ppm): 100%

O=C(NCC=C(Cl)Cl)c1coc(Cc2ccc(-c3noc(C(F)(F)F)n3)cc2)n1 [compound 399]
Test C disease control rating [1, 5]: 99%
Test B disease control rating [2, 6]: 10* %
Test A disease control rating [3, 5]: 100%

FC(F)(F)c1nc(-c2ccc(Cc3ccccc3)cc2)no1 [compound 451]
Test C disease control rating [1, 5]: 0%
Test B disease control rating [2, 6]: 8* %
Test A disease control rating [3, 5]: 99%

O=C(OCC1CC1)c1cnn(COc2ccc(-c3noc(C(F)(F)F)n3)cc2)c1 [compound 216]
Test C disease control rating ([1]; test suspension 10 ppm): 74%
Test B disease control rating ([2]; test suspension 250 ppm): 9* %
Test A disease control rating [3, 4]: 100%

FC(F)(F)c1nc(-c2ccc(Cn3nnc4ccccc43)cc2)no1 [compound 92]
Test C disease control rating ([1]; test suspension 250 ppm): 100%
Test B disease control rating ([2]; test suspension 250 ppm): 96%
Test A disease control rating ([3]; test suspension 250 ppm): 0%

N#CCNC(=O)c1cccc(Cc2ccc(-c3noc(C(F)(F)F)n3)cc2)c1 [compound 285]
Test C disease control rating ([1]; test suspension 10 ppm): 97%
Test B disease control rating ([2]; test suspension 250 ppm): 94* %
Test A disease control rating [3, 4]: 100%

CCNC(=O)C1=NOC(Cc2ccc(-c3noc(C(F)(F)F)n3)cc2)C1 (stereo not drawn) [compound 175]
Test C disease control rating ([1]; test suspension 255 ppm): 100%
Test B disease control rating ([2]; test suspension 255 ppm): 95%
Test A disease control rating ([3]; test suspension 255 ppm): 100%

Cn1ccc(CNC(=O)c2coc(Cc3ccc(-c4noc(C(F)(F)F)n4)cc3)n2)n1 [compound 265]
Test C disease control rating ([1]; test suspension 10 ppm): 100%
Test B disease control rating ([2]; test suspension 250 ppm): 93* %
Test A disease control rating [3, 4]: 100%

CCOC(=O)c1cnn(CCn2nc(-c3noc(C(F)(F)F)n3)ccc2=O)c1 [compound 347]
Test C disease control rating ([1]; test suspension 10 ppm): 0%
Test B disease control rating ([2]; test suspension 250 ppm): 0* %
Test A disease control rating [3, 4]: 0%

O=C(NCC1CC1)c1coc(Cc2ccc(-c3noc(C(F)(F)F)n3)cc2)n1 [compound 327]
Test C disease control rating ([1]; test suspension 10 ppm): 100%
Test B disease control rating ([2]; test suspension 250 ppm): 94* %
Test A disease control rating [3, 4]: 100%
